Like-named read-outs stand apart in the source and are kept apart here.
How the values were obtained:
E. Coli = test: Antimicrobial susceptibility (zone of inhibition) test, Kirby-Bauer disc diffusion; assay type: cell-based; details: samples 30 ug/ml, Muller-Hinton agar, about 24 hrs
Protocol: (§1) Anti-microbial susceptibility (zone of inhibition) tests were conducted by an outside analytical laboratory. The Kirby-Bauer or disc diffusion method of assessing antimicrobial activity is an established literature procedure and was used with some modifications to the standard protocol: 1) S. Aureus and E. Coli were grown in Muller-Hinton broth and incubated at 30-35° C. for 18-24 hrs, 2) samples were diluted in sterile water for injections or pure water to achieve a concentration of 30 ug/ml and were plated in triplicate, and 3) the test plates were prepared using Muller-Hinton agar and incubated at 30-35° C. for approximately 24 hrs.
(§2) The diameters of the zone of inhibition (if present) around the test sample were measured using calibrated calipers. […] 3a has some activity (average zone of 24.45 mm) against S. Aureus.

S. Aureus = test: as above; assay type: cell-based; details: for The diameter of the zone including sample: S. Aureus, samples 30 ug/ml, Muller-Hinton agar, about 24 hrs, average of triplicate; for antimicrobial activity in this assay: disc diffusion, S. Aureus and E. Coli, 30 ug/ml
Protocol: as §1, §2

[1] = Stability testing in solution; assay type: physicochemical; details: de-ionized water, saline and PBS at pH of about 3 to 7.5
Protocol: Compounds of the present invention will be stable in solution and/or in powder form. To test for stability in different solutions (e.g., de-ionized water, de-ionized water adjusted with K2HPO4 to pH 7.4, de-ionized water adjusted with NaOH to pH 9, saline solution or PBS). The compounds are tested for degradation at different times at different temperatures. By way of example, compound 3b was stable in de-ionized water saline and PBS at pH of about 3 to 7.5.

[2] = Intravenous blood brain barrier (BBB) penetration assay in mice; assay type: in vivo, CD-1 mice; details: 1 mg/kg tail-vein
Protocol: Intravenous blood brain barrier (BBB) penetration of Compounds 38 and 3b in mice was assessed by an outside analytical laboratory using the standard protocol. CD-1 mice were tail-vein injected with 38 or 3b (1 mg/kg, n=3), and the plasma and brain samples were collected at 30, 60 and 180 min time intervals. The concentration of 38 and 3b in brain (ng/g tissue), plasma and the ratio of the brain concentration at each time point were determined by acetonitrile precipitation of the test compounds from the samples followed by HPLC-MS?MS analysis.
After treatment of the animals with the test compounds, plasma samples were collected by cardiac puncture. Blood aliquots (300-400 μL) were collected in lithium heparincoated tubes, mixed gently, then kept on ice and centrifuged at 2,500×g for 15 minutes at 4° C. within 1 hour of collection. Plasma was then harvested and kept frozen at −20° C. until further processing.
Immediately after blood sampling, mice were decapitated and the whole brains were quickly removed, rinsed with cold saline (0.9% NaCl, g/mL), surface vasculature ruptured, blotted with dry gauze weighed and kept on ice until further processing within 1 hour of collection. Each brain was homogenized in 1.5 mL cold phosphate-buffered saline, pH 7.4, for 10 seconds on ice using a POWERGEN 125 homogenizer. Each sample was then stored at −20° C. until further processing.
Brain homogenates collected as above were processed by adding an equal volume of chilled 26% (g/mL) neutral Dextran (average MW 65,000-85,000, from Sigma, catalog number D-1390) solution to obtain a final Dextran concentration of 13%. The homogenate was centrifuged at 5400×g for 15 minutes at 4° C. Supernatents were subsequently processed using acetonitrile precipitation and analyzed by HPLC-MS. A brain calibration curve was generated by spiking drug-free brain homogenate from the control animals with test compound at specified concentration levels. The spiked brain homogenate samples were processed together with the unknowns using the same procedure. Processed brain samples were stored frozen (−20° C.) until LC-MS/MS analysis.
Plasma samples collected as above were processed and analyzed as for the brain homogenate supernatents described above.
After processing, all samples were analyzed using HPLC-MS/MS analysis. HPLC analysis employed a Synergi Max-RP 80 HPLC column (2×50 mm, 4 μm, Phenomenex Part No. 00B-4337-B0), using a first mobile phase of 13.3 mM ammonium formate/6.7 mM formic acid in water, and a second mobile phase of 6 mM ammonium formate/3 mM formic acid in water/CH3CN (1/9, v/v). MS/MS analysis was done on a TSQ QUANTUM with selected reaction monitoring, positive ion mode, using a capillary temperature of 325° C. and a capillary voltage of 4.0 kV. Peak areas were recorded, and the concentrations of the test compound in the unknown brain samples were determined using the respective calibration curves.

## CN(C)c1cc2ncoc2c2c1C[C@H]1C[C@H]3[C@H](N(C)C)C(O)=C(C(N)=O)C(=O)[C@@]3(O)C(O)=C1C2=O [Compound 3a, (6aR,7aS,8S,11aS)-5,8-bis(dimethylamino)-9,11a,12trihydroxy-11,13-dioxo-6,6a,7,7a,8,11,11a,13-octahydrotetraceno[2,1-d]oxazole-10carboxamide]
E. Coli
  The diameter of the zone including sample: no zone

## CN(C)c1cc2[nH]c(=O)oc2c2c1C[C@H]1C[C@H]3[C@H](N(C)C)C(O)=C(C(N)=O)C(=O)[C@@]3(O)C(O)=C1C2=O [Compound 3b, (6aR,7aS,8S,11aS)-5,8bis(dimethylamino)-9,11a,12-trihydroxy-2,11,13-trioxo-2,3,6,6a,7,7a,8,11,11a,13decahydrotetraceno[2,1-d]oxazole-10-carboxamide]
S. Aureus
  The diameter of the zone including sample: no zone
  antimicrobial activity in this assay: no antimicrobial activity
E. Coli
  The diameter of the zone including sample: no zone
[1]
  stability in solution: stable
[2]
  blood brain barrier penetration in vivo: acceptable
[2]; 180 min, n=3
  concentration in the brain: below the limit of quantitation
[2]; CD-1, mouse, brain, intravenous, 30 min, n=3, read-out: concentration in the brain
  concentration at 30 min: 6.7 ng/g
[2]; CD-1, mouse, brain, intravenous, n=3, read-out: concentration in the brain
  concentration at 60 min: 5.8 ng/g
[2]; CD-1, mouse, brain/plasma, intravenous, 30 min, read-out: Calculated ratio of brain to plasma concentration
  Kp at 0.5 h: 0.07
[2]; CD-1, mouse, plasma, intravenous, 30 min, n=3, read-out: Plasma concentration
  concentration at 30 min: 97 ng/mL
[2]; CD-1, mouse, plasma, intravenous, n=3, read-out: Plasma concentration
  concentration at 60 min: 27 ng/mL
[2]; CD-1, mouse, plasma, intravenous, 180 min, n=3
  concentration at 180 min: 4 ng/mL

## CN(C)c1cc2c(c3c1C[C@H]1C[C@H]4[C@H](N(C)C)C(O)=C(C(N)=O)C(=O)[C@@]4(O)C(O)=C1C3=O)OCC(=O)N2 [Compound 38, (6aR,7aS,8S,11aS)-5,8-bis(dimethylamino)-9,11a,12-trihydroxy-2,11,13trioxo-2,3,6,6a,7,7a,8,11,11a,13-decahydrotetraceno[2,1-d]morpholine-10-carboxamide]
S. Aureus
  The diameter of the zone including sample: no zone
  antimicrobial activity in this assay: no antimicrobial activity
E. Coli
  The diameter of the zone including sample: no zone

— US9896422B2, “Tetracycline derivatives with reduced antibiotic activity and neuroprotective benefits” (Neumedics, priority 2008, dated 2018)
